From patent US8557796B2, “Substituted 1-oxa-2,8-diaza-spiro [4,5] dec-2-ene derivatives and related treatment methods” (Gruenenthal GmbH, priority 2001, dated 2013)

Legend:
NA transporter = molecular target: T1, NA transporter (Rattus norvegicus, UniProt Q9WTR4); experiment: Noradrenalin uptake inhibition (NA-uptake) in synaptosomes; assay type: biochemical; conditions: rat hypothalamus synaptosomes
T1 construct: synaptosomes from rat brain regions were freshly isolated; from tissue; host or cells: P2 synaptosome fraction from hypothalamus of male rat brain
From the text: Tests on Noradrenalin Uptake Inhibition (NA-Uptake Inhibition)
In order to be able to carry out these in vitro studies, synaptosomes from rat brain regions were freshly isolated.

5HT-uptake = molecular target: T2, 5HT-uptake (Rattus norvegicus, UniProt P31652); experiment: Serotonin uptake inhibition (5HT uptake) in synaptosomes; assay type: biochemical; conditions: rat brain synaptosomes
T2 construct: synaptosomes from rat brain regions were freshly isolated; from tissue; host or cells: P2 synaptosome fraction from rat brain regions
T2 sequence (P31652 whole entry): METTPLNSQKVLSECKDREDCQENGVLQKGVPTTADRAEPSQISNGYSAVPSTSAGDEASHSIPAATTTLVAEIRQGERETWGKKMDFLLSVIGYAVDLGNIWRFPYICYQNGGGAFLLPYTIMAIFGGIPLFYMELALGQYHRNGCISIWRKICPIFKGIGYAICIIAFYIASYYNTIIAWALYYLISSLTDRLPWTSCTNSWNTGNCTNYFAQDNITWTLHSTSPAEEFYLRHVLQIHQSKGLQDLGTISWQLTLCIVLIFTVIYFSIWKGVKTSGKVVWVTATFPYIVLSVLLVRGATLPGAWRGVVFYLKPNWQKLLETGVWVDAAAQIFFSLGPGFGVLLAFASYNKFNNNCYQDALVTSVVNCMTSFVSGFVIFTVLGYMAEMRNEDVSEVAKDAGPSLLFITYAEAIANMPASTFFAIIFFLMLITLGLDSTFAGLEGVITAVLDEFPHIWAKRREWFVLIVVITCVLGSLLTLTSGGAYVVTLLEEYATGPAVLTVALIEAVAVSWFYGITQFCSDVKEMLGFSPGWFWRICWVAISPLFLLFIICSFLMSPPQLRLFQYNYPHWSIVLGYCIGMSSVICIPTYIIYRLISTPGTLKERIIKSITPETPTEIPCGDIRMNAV
From the text: Tests on Serotonin Uptake (5HT Uptake Inhibition)

T1 sequence (Q9WTR4 1-597): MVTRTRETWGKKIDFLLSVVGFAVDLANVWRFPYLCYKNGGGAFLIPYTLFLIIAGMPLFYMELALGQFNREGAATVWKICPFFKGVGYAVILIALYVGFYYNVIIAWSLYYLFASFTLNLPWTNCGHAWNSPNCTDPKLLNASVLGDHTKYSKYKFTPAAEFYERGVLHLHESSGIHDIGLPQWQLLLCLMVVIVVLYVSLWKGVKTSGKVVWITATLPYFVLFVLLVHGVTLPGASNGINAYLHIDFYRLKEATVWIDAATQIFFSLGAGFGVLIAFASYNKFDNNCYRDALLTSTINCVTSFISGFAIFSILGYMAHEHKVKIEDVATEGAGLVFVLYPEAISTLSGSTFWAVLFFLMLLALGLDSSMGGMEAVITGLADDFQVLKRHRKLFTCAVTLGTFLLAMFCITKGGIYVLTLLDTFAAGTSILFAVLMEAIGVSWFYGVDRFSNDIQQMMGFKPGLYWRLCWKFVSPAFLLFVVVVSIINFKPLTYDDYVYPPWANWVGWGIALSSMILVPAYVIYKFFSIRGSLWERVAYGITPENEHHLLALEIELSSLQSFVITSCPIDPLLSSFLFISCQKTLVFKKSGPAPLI

Row | Compound | inhibition at 10 µM (NA transporter) [%] | inhibition at 10 µM (5HT-uptake) [%] | further results
1 | Cc1cc(C(=O)N2CCC3(CC2)CC(C(=O)NCc2ccncc2)=NO3)ccc1Br [Example 130, 8-(4-bromo-3-methyl-benzoyl)-1-oxa-2,8-diaza-spiro[4,5]dec-2-ene-3-carboxylic acid (pyridin-4-ylmethyl)-amide] | 61 | 64 | 
2 | Cc1ccc(CNC(=O)C2=NOC3(CCN(C(=O)c4ccc(Br)cc4)CC3)C2)o1 [Example 109, 8-(4-bromo-benzoyl)-1-oxa-2,8-diaza-spiro[4,5]dec-2-ene-3-carboxylic acid (5-methyl-furan-2-ylmethyl)-amide] | 40 | 56 | 
3 | Cc1cccc(N2CCN(C(=O)C3=NOC4(CCN(S(=O)(=O)c5cccs5)CC4)C3)CC2C)c1 (stereo not drawn) [Example 31, (3-methyl-4-m-tolyl-piperazin-l-yl)-[8-(thiophene-2-sulphonyl)-1-oxa-2,8-diaza-spiro[4,5]dec-2-en-3-yl]-methanone] |  |  | NA-uptake, 10 μM, % inhibition (NA transporter): 66%; 5HT-uptake, 10 μM, % inhibition (5HT-uptake): 69%
4 | CCOC(=O)N1CCC(NC(=O)C2=NOC3(CCN(C(=O)C4CC4c4ccccc4)CC3)C2)CC1 (stereo not drawn) [Example 55, 4-{[8-(2-phenyl-cyclopropanecarbonyl)-1-oxa-2,8-diaza-spiro[4,5]dec-2-ene-3-carbonyl]-amino}-piperidine-1-carboxylic acid ethyl ester] | 50 | 65 | 
5 | COc1ccc(S(=O)(=O)N2CCC3(CC2)CC(C(=O)NCCc2ccccc2F)=NO3)cc1 [Example 104] |  |  | NA-uptake, 10 μM, % inhibition (NA transporter): 49%; 5HT-uptake, 10 μM, % inhibition (5HT-uptake): 41%
6 | CC(NC(=O)C1=NOC2(CCN(S(=O)(=O)c3cc(Cl)ccc3Cl)CC2)C1)C(=O)Nc1ccc2ccccc2c1 (stereo not drawn) [Example 44, 8-(2,5-dichloro-benzenesulphonyl)-1-oxa-2,8-diaza-spiro[4,5]dec-2-ene-3-carboxylic acid [1-(naphthalen-2-ylcarbamoyl)-ethyl]amide] | 48 | 80 | 
7 | Cc1ccc(F)cc1S(=O)(=O)N1CCC2(CC1)CC(C(=O)NCc1cccs1)=NO2 [Example 150, 8-(5-fluoro-2-methyl-benzenesulphonyl)-1-oxa-2,8-diaza-spiro[4,5]dec-2-ene-3-carboxylic acid (thiophen-2-ylmethyl)-amide] | 48 | 70 | 
8 | CN(C)S(=O)(=O)N1CCC2(CC1)CC(C(=O)N1CCN(C3CCCCCC3)CC1)=NO2 [Example 144, 3-(4-cycloheptyl-piperazine-1-carbonyl)-1-oxa-2,8-diaza-spiro[4,5]dec-2-ene-8 sulphonic acid dimethylamide] | 56 | 41 | 
9 | Cc1ccc(F)cc1S(=O)(=O)N1CCC2(CC1)CC(C(=O)NCCN(C)C)=NO2 [Example 37, 8-(5-fluoro-2-methyl-benzenesulphonyl)-1-oxa-2,8-diaza-spiro[4,5]dec-2-ene-3-carboxylic acid (2-dimethylamino-ethyl)-amide] | 52 | 70 | 
10 | O=C(NC1CCCC1)C1=NOC2(CCN(C(=O)c3ccc([N+](=O)[O-])cc3Cl)CC2)C1 [Example 5, 8-(2-chloro-4-nitro-benzoyl)-1-oxa-2,8-diaza-spiro[4,5]dec-2-ene-3-carboxylic acid cyclopentylamide] | 53 | 59 | 
11 | COc1cccc(CN2CCC(NC(=O)C3=NOC4(CCN(S(=O)(=O)c5cc(Cl)ccc5Cl)CC4)C3)C2)c1 (stereo not drawn) [Example 64] |  |  | NA-uptake, 10 μM, % inhibition (NA transporter): 61%; 5HT-uptake, 10 μM, % inhibition (5HT-uptake): 61%
12 | CN(C)S(=O)(=O)N1CCC2(CC1)CC(C(=O)N1CCN(Cc3ccc4ccccc4c3)CC1)=NO2 [Example 65, 3-(4-naphthalen-2-ylmethyl-piperazine-1-carbonyl)-1-oxa-2,8-diaza-spiro[4,5]dec-2-ene-8-sulphonic acid dimethylamide] | 63 | 81 | 
13 | Cc1ccc(S(=O)(=O)N2CCC3(CC2)CC(C(=O)NC2CCCC2OCc2ccccc2)=NO3)cc1 (stereo not drawn) [Example 73, 8-(toluene-4-sulphonyl)-1-oxa-2,8-diaza-spiro[4,5]dec-2-ene-3-carboxylic acid (2-benzyloxy-cyclopentyl)-amide] |  |  | NA-uptake, 10 μM, % inhibition (NA transporter; 10 µM): 93%; 5HT-uptake, 10 μM, % inhibition (5HT-uptake; 10 µM): 46%
14 | O=C(C1=NOC2(CCN(S(=O)(=O)c3cccs3)CC2)C1)N1CCN(CCCc2ccccc2)CC1 [Example 14, [4-(3-phenyl-propyl)-piperazin-l-yl]-[8-(thiophene-2-sulphonyl)-1-oxa-2,8-diaza-spiro[4,5]dec-2-en-3-yl]-methanone] |  |  | NA-uptake, 10 μM, % inhibition (NA transporter): 70%; 5HT-uptake, 10 μM, % inhibition (5HT-uptake): 78%
15 | Cc1ccc(S(=O)(=O)N2CCC3(CC2)CC(C(=O)NC2CCCC2OCc2ccccc2)=NO3)cc1 (stereo not drawn) [Example 67, 8-(toluene-4-sulphonyl)-1-oxa-2,8-diaza-spiro[4,5]dec-2-ene-3-carboxylic acid (2-benzyloxy-cyclopentyl)-amide] |  | 58 | NA-uptake, 10 μM, % inhibition (NA transporter; 10 µM): 59%
16 | COc1ccc(S(=O)(=O)N2CCC3(CC2)CC(C(=O)NC(C)Cc2ccc(Cl)cc2)=NO3)cc1 (stereo not drawn) [Example 164, 8-(4-methoxy-benzenesulphonyl)-1-oxa-2,8-diaza-spiro[4,5]dec-2-ene-3-carboxylic acid [2-(4-chloro-phenyl)-1-methyl-ethyl]-amide] | 80 | 54 | 
17 | CC1CCCCN1CCCNC(=O)C1=NOC2(CCN(S(=O)(=O)c3cc(Cl)ccc3Cl)CC2)C1 (stereo not drawn) [Example 15, 8-(2,5-dichloro-benzenesulphonyl)-1-oxa-2,8-diaza-spiro[4,5]dec-2-ene-3-carboxylic acid[3-(2-methyl-piperidin-1-yl)-propyl]-amide] |  |  | NA-uptake, 10 μM, % inhibition (NA transporter): 41%; 5HT-uptake, 10 μM, % inhibition (5HT-uptake): 55%
18 | O=C(C1=NOC2(CCN(S(=O)(=O)c3ccc(Cl)s3)CC2)C1)N1CCN(c2ccccc2)CC1 [Example 4, [8-(5-chloro-thiophene-2-sulphonyl)-1-oxa-2,8-diaza-spiro[4,5]dec-2-en-3-yl]-(4-phenyl-piperazin-1-yl)-methanone] | 45 | 54 | 
19 | O=C(NCc1cccs1)C1=NOC2(CCN(S(=O)(=O)c3ccccc3Cl)CC2)C1 [Example 156, 8-(2-chloro-benzenesulphonyl)-1-oxa-2,8-diaza-spiro[4,5]dec-2-ene-3-carboxylic acid (thiophen-2-ylmethyl)-amide] | 60 | 41 | 
20 | CC(NC(=O)C1=NOC2(CCN(S(=O)(=O)c3cccs3)CC2)C1)c1cccc2c1OCCO2 (stereo not drawn) [Example 84, 8-(thiophene-2-sulphonyl)-1-oxa-2,8-diaza-spiro[4,5]dec-2-ene-3-carboxylic acid [1-(2,3-dihydro-benzo[1,4]dioxin-5-yl)-ethyl]-amide] | 67 | 68 | 
21 | CN(C)S(=O)(=O)N1CCC2(CC1)CC(C(=O)N1CCN(c3ncnc4sccc34)CC1)=NO2 [Example 70, 3-(4-thieno[2,3-d]pyrimidin-4-yl-piperazine-1-carbonyl)-1-oxa-2,8-diaza-spiro[4,5]dec-2-ene-8-sulphonic acid dimethylamide] |  | 54 | 
22 | Cc1ccc(C(=O)N2CCC3(CC2)CC(C(=O)NCC2CC2)=NO3)c(F)c1F [Example 159, 8-(2,3-difluoro-4-methyl-benzoyl)-1-oxa-2,8-diaza-spiro[4,5]dec-2-ene-3-carboxylic acid cyclopropylmethyl-amide] |  | 40 | 
